Results published in patent US6380156B1, “Total synthesis of the amino hip analogue of didemnin A” (The Board of Trustees of the University of Illnois, priority 1996, dated 2002).
Numbered stars: 1 amine (or outer) side, 2 acyl side, 3 side chain; on linkers, the order of the positions; unused ones are H or OH. Bridge positions count the residues as written; N and C are the ends. Square brackets hold non-standard residues; d marks the D form. Peptide text beside a SMILES is read from it. * marks the point of attachment. X1 = CC[C@H](C)[C@@H](N[*:1])[C@@H](O)CC(=O)[*:2]; X2 = CC(C)[C@H](N[*:1])C(=O)[C@H](C)C(=O)[*:2]; NMeY = CN[C@@H](Cc1ccc(O)cc1)C(=O)O; dNMeL = CN[C@H](CC(C)C)C(=O)O; Cbz = O=C(OCc1ccccc1)*

Tests used:
[1] = system: HSV; assay: Antiviral activity, HSV/CV-1; format: cell-based; set-up: key: +++ complete inhibition; ++ strong inhibition; + moderate inhibition; − no inhibition
[2] = system: DNA and RNA viruses; settings: cited from earlier work
[3] = molecular target: elongation factor 1α (EF-1α) (Homo sapiens, UniProt P68104); settings: GTP-dependent; cited from earlier work
Chain of elongation factor 1α (EF-1α) (P68104 whole entry): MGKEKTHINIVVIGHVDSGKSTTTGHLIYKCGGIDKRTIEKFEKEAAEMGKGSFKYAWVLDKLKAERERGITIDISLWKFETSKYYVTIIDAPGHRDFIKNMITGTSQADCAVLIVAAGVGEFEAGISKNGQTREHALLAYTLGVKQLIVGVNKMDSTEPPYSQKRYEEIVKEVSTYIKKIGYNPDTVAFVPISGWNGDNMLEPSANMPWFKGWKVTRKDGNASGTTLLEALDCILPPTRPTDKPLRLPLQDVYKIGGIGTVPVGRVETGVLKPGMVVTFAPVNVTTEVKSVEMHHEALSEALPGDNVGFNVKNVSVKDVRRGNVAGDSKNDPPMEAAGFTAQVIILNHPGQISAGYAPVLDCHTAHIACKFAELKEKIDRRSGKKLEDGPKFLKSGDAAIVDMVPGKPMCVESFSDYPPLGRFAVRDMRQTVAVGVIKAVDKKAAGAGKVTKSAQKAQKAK

[4] = system: CV-1; assay: Cytotoxicity in the HSV/CV-1 antiviral test; settings: scale 0-least toxic to 16 (toxic)
[5] = system: Nb2 node lymphoma cells; settings: cited from earlier work
[6] = in vitro; cited from earlier work

| Compound | HSV/CV-1 Activity (antiviral) ([1]; 10 ng/mL) | HSV/CV-1 Activity (antiviral) ([1]; 20 ng/mL) | HSV/CV-1 Activity (antiviral) ([1]; 50 ng/mL) | HSV/CV-1 Activity (antiviral) ([1]; 100 ng/mL) | antiviral activity against DNA and RNA viruses [2] | binding to elongation factor 1α (EF-1α) [3] | HSV/CV-1 Cytotoxicity ([4]; 10 ng/mL) | HSV/CV-1 Cytotoxicity ([4]; 20 ng/mL) | HSV/CV-1 Cytotoxicity ([4]; 50 ng/mL) | HSV/CV-1 Cytotoxicity ([4]; 100 ng/mL) | binding to a site on Nb2 node lymphoma cells [5] | cytotoxicity relative to didemnin A [6] |
| --- | --- | --- | --- | --- | --- | --- | --- | --- | --- | --- | --- | --- |
| Didemnin A [Didemnin A (1)] | − | + | + | + | exhibit antiviral activity | binds elongation factor 1α (EF-1α) in a GTP-dependent manner | 0 | 0 | 0 | 0 |  |  |
| Didemnin B |  |  |  |  | exhibit antiviral activity |  |  |  |  |  | binds to a site on Nb2 node lymphoma cells | approximately twenty times more cytotoxic than didemnin A |
| CC[C@H](C)[C@H]1NC(=O)[C@@H](NC(=O)[C@@H](CC(C)C)N(C)C(=O)OCc2ccccc2)[C@@H](C)OC(=O)[C@H](Cc2ccc(OC)cc2)N(C)C(=O)[C@@H]2CCCN2C(=O)[C@H](CC(C)C)NC(=O)[C@@H](C)C(=O)[C@H](C(C)C)NC(=O)C[C@@H]1O [Cbz-[Aip^3]-Didemnin A] (Cbz-[dNMeL]T[X1][X2]LP[NMeY](Me); ester 2-C) | − | + | + | + |  |  | 0 | 0 | 8 | 10 |  |  |
